Assay results taken from patent US10821115B2, “Compounds that inhibit Mcl-1 protein” (priority 2017, dated 2020).
Read-outs that look alike come from different tables or passages of the source.

How the values were obtained:
[1] = test system: human multiple myeloma cell line, OPM-2; assay: Cell viability assay (OPM-2 10 FBS), CellTiter-Glo; format: cell-based
Method in brief: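 Cells were seeded at 3000 cells/well in RPMI 1640 with 10% FBS and exposed to serially diluted compounds for 16 h at 37 °C, 5% CO2.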

[2] = molecular target: recombinant human Mcl-1 (residues 171-327) / Bim interaction (Homo sapiens (Human), UniProt Q07820); assay: biochemical; format: binding; details: read-out: Mcl-1 HTRF IC50
recombinant human Mcl-1 (residues 171-327) / Bim interaction, sequence (Q07820 171-327): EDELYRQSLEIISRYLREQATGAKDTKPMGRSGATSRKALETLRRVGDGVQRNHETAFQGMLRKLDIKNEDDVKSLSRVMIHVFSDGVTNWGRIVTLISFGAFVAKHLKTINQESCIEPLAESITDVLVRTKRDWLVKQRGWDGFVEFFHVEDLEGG

[3] = TR-FRET, Mcl-1(171-327) / biotin-Bim (51-76)
[4] = Homo sapiens, OPM-2, 16 h, read-out: OPM-2 10% FBS IC50 IP, OPM-2 cells, 10% FBS, 16 h, CellTiter-Glo

## CO[C@H](C)[C@]1(OC)/C=C/C[C@H](C)[C@@H](C)S(=O)(=O)NC(=O)c2ccc3c(c2)N(C[C@@H]2CC[C@H]21)C[C@@]1(CCCc2cc(Cl)ccc21)CO3 [Example 100475, (1S,3′R,6′R,7′S,8′E,11′S,12′R)-6-chloro-7′-methoxy-7′-((1R)-1-methoxyethyl)-11′,12′-dimethyl-3,4-dihydro-2H,15′H-spiro[naphthalene-1,22′-[20]oxa[13]thia[1,14]diazatetracyclo [14.7.2.0~3,6~.0~19,24~]pentacosa[8,16,18,24]tetraen]-15′-one 13′,13′-dioxide]
[1]; read-out: OPM-2 10% FBS IC50 IP, OPM-2 cells, 10% FBS, 16 h, CellTiter-Glo
  IC50: 2710 nM
[2]; [3]
  IC50: 1.36 nM

## C[C@@H]1[C@@H](C)C/C=C/[C@](C)(OCC2CCOCC2)[C@@H]2CC[C@H]2CN2C[C@@]3(CCCc4cc(Cl)ccc43)COc3ccc(cc32)C(=O)NS1(=O)=O [Example 100477, (1S,3′R,6′R,7′S,8′E,11′S,12′R)-6-chloro-7′,11′,12′-trimethyl-7′-(tetrahydro-2H-pyran-4-ylmethoxy)-3,4-dihydro-2H,15′H-spiro[naphthalene-1,22′-[20]oxa[13]thia[1,14]diazatetracyclo [14.7.2.0~3,6~.0~19,24~]pentacosa[8,16,18,24]tetraen]-15′-one 13′,13′-dioxide]
[1]; [4]
  IC50: 159 nM
[2]; [3]
  IC50: 0.313 nM

## CO[C@@]1([C@@H](C)O)CCC[C@H](C)[C@@H](C)S(=O)(=O)NC(=O)c2ccc3c(c2)N(C[C@@H]2CC[C@H]21)C[C@@]1(CCCc2cc(Cl)ccc21)CO3 [Example 100483, (1S,3′R,6′R,7′S,11′S,12′R)-6-chloro-7′-((1R)-1-hydroxyethyl)-7′-methoxy-11′,12′-dimethyl-3,4-dihydro-2H,15′H-spiro[naphthalene-1,22′-[20]oxa[13]thia[1,14]diazatetracyclo [14.7.2.0~3,6~.0~19,24~]pentacosa[16,18,24]trien]-15′-one 13′,13′-dioxide]
[1]; [4]
  IC50: 1690 nM
[2]; [3]
  IC50: 1.66 nM

## C[C@@H]1[C@@H](C)C/C=C/[C@](C)(OCCN2CC(F)(F)C2)[C@@H]2CC[C@H]2CN2C[C@@]3(CCCc4cc(Cl)ccc43)COc3ccc(cc32)C(=O)NS1(=O)=O [Example 100484, (1S,3′R,6′R,7′S,8′E,11′S,12′R)-6-chloro-7′-(2-(3,3-difluoro-1-azetidinyl)ethoxy)-7′,11′,12′-trimethyl-3,4-dihydro-2H,15′H-spiro[naphthalene-1,22′-[20]oxa[13]thia[1,14]diazatetracyclo [14.7.2.0~3,6~.0~19,24~]pentacosa[8,16,18,24]tetraen]-15′-one 13′,13′-dioxide]
[1]; [4]
  IC50: 3370 nM
[2]; [3]
  IC50: 3.85 nM

## COCCN1CCN(CCO[C@@]2(C)/C=C/C[C@H](C)[C@@H](C)S(=O)(=O)NC(=O)c3ccc4c(c3)N(C[C@@H]3CC[C@H]32)C[C@@]2(CCCc3cc(Cl)ccc32)CO4)CC1 [Example 100485, (1S,3′R,6′R,7′S,8′E,11′S,12′R)-6-chloro-7′-(2-(4-(2-methoxyethyl)-1-piperazinyl)ethoxy)-7′,11′,12′-trimethyl-3,4-dihydro-2H,15′H-spiro[naphthalene-1,22′-[20]oxa[13]thia[1,14]diazatetracyclo [14.7.2.0~3,6~.0~19,24~]pentacosa[8,16,18,24]tetraen]-15′-one 13′,13′-dioxide]
[1]; [4]
  IC50: 272 nM
[2]; [3]
  IC50: 0.192 nM

## CO[C@@]1(C#CCCN2CCN(S(C)(=O)=O)CC2)/C=C/C[C@H](C)[C@@H](C)S(=O)(=O)NC(=O)c2ccc3c(c2)N(C[C@@H]2CC[C@H]21)C[C@@]1(CCCc2cc(Cl)ccc21)CO3 [Example 100488, (1S,3′R,6′R,7′S,8′E,11′S,12′R)-6-chloro-7′-methoxy-11′,12′-dimethyl-7′-(4-(4-(methylsulfonyl)-1-piperazinyl)-1-butyn-1-yl)-3,4-dihydro-2H,15′H-spiro[naphthalene-1,22′-[20]oxa[13]thia[1,14]diazatetracyclo [14.7.2.0~3,6~.0~19,24~]pentacosa[8,16,18,24]tetraen]-15′-one 13′,13′-dioxide]
[1]; [4]
  IC50: 346 nM
[2]; [3]
  IC50: 0.389 nM

## CO[C@@]1(CC(=O)c2ccccn2)/C=C/C[C@H](C)[C@@H](C)S(=O)(=O)NC(=O)c2ccc3c(c2)N(C[C@@H]2CC[C@H]21)C[C@@]1(CCCc2cc(Cl)ccc21)CO3 [Example 100491, (1S,3′R,6′R,7′S,8′E,11′S,12′R)-6-chloro-7′-methoxy-11′,12′-dimethyl-7′-(2-oxo-2-(2-pyridinyl)ethyl)-3,4-dihydro-2H,15′H-spiro[naphthalene-1,22′-[20]oxa[13]thia[1,14]diazatetracyclo [14.7.2.0~3,6~.0~19,24~]pentacosa[8,16,18,24]tetraen]-15′-one 13′,13′-dioxide]
[1]; [4]
  IC50: 308 nM
[2]; [3]
  IC50: 0.208 nM

## CO[C@]1(CS(C)(=O)=O)/C=C/C[C@H](C)[C@@H](C)S(=O)(=O)NC(=O)c2ccc3c(c2)N(C[C@@H]2CC[C@H]21)C[C@@]1(CCCc2cc(Cl)ccc21)CO3 [Example 100492, (1S,3′R,6′R,7′R,8′E,11′S,12′R)-6-chloro-7′-methoxy-11′,12′-dimethyl-7′-((methylsulfonyl)methyl)-3,4-dihydro-2H,15′H-spiro[naphthalene-1,22′-[20]oxa[13]thia[1,14]diazatetracyclo [14.7.2.0~3,6~.0~19,24~]pentacosa[8,16,18,24]tetraen]-15′-one 13′,13′-dioxide]
[1]; [4]
  IC50: 436 nM
[2]; [3]
  IC50: 0.749 nM

## CC#C[C@@]1(O)/C=C/C[C@H](C)[C@@H](C)S(=O)(=O)NC(=O)c2ccc3c(c2)N(C[C@@H]2CC[C@H]21)C[C@@]1(CCCc2cc(Cl)ccc21)CO3 [Example 100498, (1S,3′R,6′R,7′R,8′E,11′S,12′R)-6-chloro-7′-hydroxy-11′,12′-dimethyl-7′-(1-propyn-1-yl)-3,4-dihydro-2H,15′H-spiro[naphthalene-1,22′-[20]oxa[13]thia[1,14]diazatetracyclo [14.7.2.0~3,6~.0~19,24~]pentacosa[8,16,18,24]tetraen]-15′-one 13′,13′-dioxide]
[1]; [4]
  IC50: 1660 nM
[2]
  IC50: 0.885 nM

## CC#C[C@]1(O)/C=C/C[C@H](C)[C@@H](C)S(=O)(=O)NC(=O)c2ccc3c(c2)N(C[C@@H]2CC[C@H]21)C[C@@]1(CCCc2cc(Cl)ccc21)CO3 [Example 100499, (1S,3′R,6′R,7′S,8′E,11′S,12′R)-6-chloro-7′-hydroxy-11′,12′-dimethyl-7′-(1-propyn-1-yl)-3,4-dihydro-2H,15′H-spiro[naphthalene-1,22′-[20]oxa[13]thia[1,14]diazatetracyclo [14.7.2.0~3,6~.0~19,24~]pentacosa[8,16,18,24]tetraen]-15′-one 13′,13′-dioxide]
[1]; [4]
  IC50: 1120 nM
[2]
  IC50: 0.509 nM

## CO[C@@]1(CC2=NCCO2)/C=C/C[C@H](C)[C@@H](C)S(=O)(=O)NC(=O)c2ccc3c(c2)N(C[C@@H]2CC[C@H]21)C[C@@]1(CCCc2cc(Cl)ccc21)CO3 [Example 100500, (1S,3′R,6′R,7′S,8′E,11′S,12′R)-6-chloro-7′-(4,5-dihydro-1,3-oxazol-2-ylmethyl)-7′-methoxy-11′,12′-dimethyl-3,4-dihydro-2H,15′H-spiro[naphthalene-1,22′-[20]oxa[13]thia[1,14]diazatetracyclo [14.7.2.0~3,6~.0~19,24~]pentacosa[8,16,18,24]tetraen]-15′-one 13′,13′-dioxide]
[1]; [4]
  IC50: 71 nM
[2]; [3]
  IC50: 0.049 nM

## CC#C[C@]1(OC)/C=C/C[C@H](C)[C@@H](C)S(=O)(=O)NC(=O)c2ccc3c(c2)N(C[C@@H]2CC[C@H]21)C[C@@]1(CCCc2cc(Cl)ccc21)CO3 [Example 100501, (1S,3′R,6′R,7′S,8′E,11′S,12′R)-6-chloro-7′-methoxy-11′,12′-dimethyl-7′-(1-propyn-1-yl)-3,4-dihydro-2H,15′H-spiro[naphthalene-1,22′-[20]oxa[13]thia[1,14]diazatetracyclo [14.7.2.0~3,6~.0~19,24~]pentacosa[8,16,18,24]tetraen]-15′-one 13′,13′-dioxide]
[1]; [4]
  IC50: 518 nM
[2]; [3]
  IC50: 0.09 nM

## C#C[C@]1(OC)/C=C/C[C@H](C)[C@@H](C)S(=O)(=O)NC(=O)c2ccc3c(c2)N(C[C@@H]2CC[C@H]21)C[C@@]1(CCCc2cc(Cl)ccc21)CO3 [Example 100502, (1S,3′R,6′R,7′S,8′E,11′S,12′R)-6-chloro-7′-ethynyl-7′-methoxy-11′,12′-dimethyl-3,4-dihydro-2H,15′H-spiro[naphthalene-1,22′-[20]oxa[13]thia[1,14]diazatetracyclo [14.7.2.0~3,6~.0~19,24~]pentacosa[8,16,18,24]tetraen]-15′-one 13′,13′-dioxide]
[1]; [4]
  IC50: 393 nM
[2]; [3]
  IC50: 0.29 nM

## C#C[C@@]1(OC)/C=C/C[C@H](C)[C@@H](C)S(=O)(=O)NC(=O)c2ccc3c(c2)N(C[C@@H]2CC[C@H]21)C[C@@]1(CCCc2cc(Cl)ccc21)CO3 [Example 100503, (1S,3′R,6′R,7′R,8′E,11′S,12′R)-6-chloro-7′-ethynyl-7′-methoxy-11′,12′-dimethyl-3,4-dihydro-2H,15′H-spiro[naphthalene-1,22′-[20]oxa[13]thia[1,14]diazatetracyclo [14.7.2.0~3,6~.0~19,24~]pentacosa[8,16,18,24]tetraen]-15′-one 13′,13′-dioxide]
[1]; [4]
  IC50: 706 nM
[2]; [3]
  IC50: 0.493 nM

## C#C[C@]1(OCCN2CCOCC2)/C=C/C[C@H](C)[C@@H](C)S(=O)(=O)NC(=O)c2ccc3c(c2)N(C[C@@H]2CC[C@H]21)C[C@@]1(CCCc2cc(Cl)ccc21)CO3 [Example 100504, (1S,3′R,6′R,7′S,8′E,11′S,12′R)-6-chloro-7′-ethynyl-11′,12′-dimethyl-7′-(2-(4-morpholinyl)ethoxy)-3,4-dihydro-2H,15′H-spiro[naphthalene-1,22′-[20]oxa[13]thia[1,14]diazatetracyclo [14.7.2.0~3,6~.0~19,24~]pentacosa[8,16,18,24]tetraen]-15′-one 13′,13′-dioxide]
[1]; [4]
  IC50: 1890 nM
[2]; [3]
  IC50: 0.803 nM
